The values below come from ChEMBL document CHEMBL4725222, “Advances in the Development of Phosphodiesterase-4 Inhibitors” (J Med Chem, 2020).

For test [1], the target named is T1, 3',5'-cyclic-AMP phosphodiesterase 4D (Homo sapiens, UniProt Q08499). Briefly: Inhibition of PDE4D3 (unknown origin).
Test [2] in a line: Inhibition of human platelet derived PDE3.
Test [3] addresses T2, Phosphodiesterase 4 (Homo sapiens, UniProt P27815+Q08499+Q07343+Q08493). Briefly: Inhibition of human neutrophil derived PDE4. Type of test: protein assay.
The target of test [4] is T1, 3',5'-cyclic-AMP phosphodiesterase 4D. As to the kind of experiment: Inhibition of PDE4D (unknown origin).
Test [5] has as its target T2, Phosphodiesterase 4. Briefly: Inhibition of PDE4 (unknown origin). Format: protein assay.
Test [6] addresses T3, 3',5'-cyclic-AMP phosphodiesterase 4B (Homo sapiens, UniProt Q07343). Briefly: Inhibition of recombinant human PDE4B2 using cAMP as substrate preincubated for 5 mins followed by substrate addition and measured after 60 mins by luminescence method.
For test [7], the target named is T2, Phosphodiesterase 4. Briefly: Inhibition of PDE4 in human U937 cell lysate using cAMP as substrate by LANCE assay. Type of test: subcellular. As to conditions: u-937. For orientation: TR-FRET usually uses a lanthanide donor and a delayed reading to cut background.
For test [8], the target named is T3, 3',5'-cyclic-AMP phosphodiesterase 4B. As to the kind of experiment: Inhibition of human brain PDE4B catalytic domain using cAMP as substrate incubated for 1 hr by luminescence method.
For test [9] the target is unchanged. Briefly: Inhibition of PDE4B (unknown origin) at 2 uM relative to control.
Test [10] concerns the target 3',5'-cyclic-AMP phosphodiesterase 4A (Homo sapiens, UniProt P27815). Briefly: Inhibition of PDE4A (unknown origin) at 2 uM relative to control.
Test [11] addresses T4, High affinity 3',5'-cyclic-AMP phosphodiesterase 7A (Homo sapiens, UniProt Q13946). As to the kind of experiment: Inhibition of human PDE7A at 2 uM relative to control.
Test [12] has as its target T1, 3',5'-cyclic-AMP phosphodiesterase 4D. As to the kind of experiment: Inhibition of PDE4D (unknown origin) at 2 uM relative to control.
Test [13] can be described thus: Inhibition of PDE4B2B (152 to 528 residues) (unknown origin) by liquid scintillation counting method. The arrangement: species or system Homo sapiens.
Test [14] has as its target T3, 3',5'-cyclic-AMP phosphodiesterase 4B. Briefly: Inhibition of recombinant human PDE4B2 preincubated for 30 mins followed by [3H]cyclic AMP addition and measured after 20 mins by radiometric assay.
Test [15] has the same target. As to the kind of experiment: Inhibition of recombinant N-terminal GST-tagged full length human PDE4B1 expressed in baculovirus infected Sf9 cells […] as substrate by HPLC-MS method.
For test [16], the target named is T2, Phosphodiesterase 4. As to the kind of experiment: Inhibition of PDE4 (unknown origin) expressed in Saccharomyces cerevisiae using [3H] cAMP as substrate incubated for 1 hr by scintillation proximity assay.
Test [17] concerns the target T4, High affinity 3',5'-cyclic-AMP phosphodiesterase 7A. Briefly: Inhibition of human PDE7A expressed in HEK293 cells using cAMP as substrate incubated for 60 mins by ELISA. (In general: In an ELISA, binding on a coated surface is turned into a signal by an enzyme label.)
For test [18], the target named is T3, 3',5'-cyclic-AMP phosphodiesterase 4B. Briefly: Inhibition of human PDE4B2 expressed in HEK293 cells using cAMP as substrate incubated for 45 to 60 mins by ELISA.
For test [19] the target is unchanged. As to the kind of experiment: Inhibition of recombinant human PDE4B expressed in Sf9 cells by IMAP phosphodiesterase assay.
The target in test [20] is T2, Phosphodiesterase 4. As to the kind of experiment: Inhibition of human U937 cell derived PDE4 preincubated for 15 mins followed by […] and cAMP addition and measured after 20 mins by liquid scintillation counter. Type of test: protein assay.

T1 sequence (Q08499 whole entry): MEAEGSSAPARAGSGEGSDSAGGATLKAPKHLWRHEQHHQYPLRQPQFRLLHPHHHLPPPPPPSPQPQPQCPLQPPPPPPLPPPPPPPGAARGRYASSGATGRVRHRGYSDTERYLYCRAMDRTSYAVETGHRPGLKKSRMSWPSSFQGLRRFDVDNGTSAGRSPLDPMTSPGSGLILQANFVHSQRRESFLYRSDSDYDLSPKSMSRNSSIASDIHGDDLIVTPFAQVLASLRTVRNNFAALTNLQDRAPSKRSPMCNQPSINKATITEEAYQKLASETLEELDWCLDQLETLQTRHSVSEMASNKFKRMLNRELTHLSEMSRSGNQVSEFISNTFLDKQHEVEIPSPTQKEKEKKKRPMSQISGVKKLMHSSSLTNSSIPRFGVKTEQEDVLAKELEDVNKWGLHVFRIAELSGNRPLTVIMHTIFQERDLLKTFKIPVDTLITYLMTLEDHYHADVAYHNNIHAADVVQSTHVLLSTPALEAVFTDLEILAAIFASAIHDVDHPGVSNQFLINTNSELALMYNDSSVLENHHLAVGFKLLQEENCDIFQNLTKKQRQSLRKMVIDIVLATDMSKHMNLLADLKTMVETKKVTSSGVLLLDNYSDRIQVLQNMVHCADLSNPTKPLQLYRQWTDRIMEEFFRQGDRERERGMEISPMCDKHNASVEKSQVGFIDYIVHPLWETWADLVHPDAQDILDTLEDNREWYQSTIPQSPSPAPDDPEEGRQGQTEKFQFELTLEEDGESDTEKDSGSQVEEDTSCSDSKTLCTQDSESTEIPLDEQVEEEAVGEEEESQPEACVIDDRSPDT
T3 sequence (Q07343 whole entry): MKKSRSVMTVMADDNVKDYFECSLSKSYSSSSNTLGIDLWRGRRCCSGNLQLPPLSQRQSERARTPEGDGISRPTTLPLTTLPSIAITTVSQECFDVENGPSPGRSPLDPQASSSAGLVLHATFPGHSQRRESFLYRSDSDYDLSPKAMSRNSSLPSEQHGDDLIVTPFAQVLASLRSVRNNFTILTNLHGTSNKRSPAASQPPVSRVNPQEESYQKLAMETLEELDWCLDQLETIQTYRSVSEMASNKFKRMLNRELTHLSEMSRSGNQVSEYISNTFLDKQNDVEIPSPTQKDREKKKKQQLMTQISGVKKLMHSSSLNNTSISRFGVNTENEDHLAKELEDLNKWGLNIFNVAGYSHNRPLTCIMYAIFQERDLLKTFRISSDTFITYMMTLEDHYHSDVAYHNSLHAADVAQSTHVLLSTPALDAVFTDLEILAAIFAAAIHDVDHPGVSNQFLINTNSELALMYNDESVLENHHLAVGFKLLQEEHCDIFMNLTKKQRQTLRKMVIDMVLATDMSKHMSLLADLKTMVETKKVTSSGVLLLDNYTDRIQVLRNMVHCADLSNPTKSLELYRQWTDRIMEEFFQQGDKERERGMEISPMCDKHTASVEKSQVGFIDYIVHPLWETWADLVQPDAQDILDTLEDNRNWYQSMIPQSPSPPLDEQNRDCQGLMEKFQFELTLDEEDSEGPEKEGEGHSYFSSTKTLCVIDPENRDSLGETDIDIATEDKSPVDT
T4 sequence (Q13946 whole entry): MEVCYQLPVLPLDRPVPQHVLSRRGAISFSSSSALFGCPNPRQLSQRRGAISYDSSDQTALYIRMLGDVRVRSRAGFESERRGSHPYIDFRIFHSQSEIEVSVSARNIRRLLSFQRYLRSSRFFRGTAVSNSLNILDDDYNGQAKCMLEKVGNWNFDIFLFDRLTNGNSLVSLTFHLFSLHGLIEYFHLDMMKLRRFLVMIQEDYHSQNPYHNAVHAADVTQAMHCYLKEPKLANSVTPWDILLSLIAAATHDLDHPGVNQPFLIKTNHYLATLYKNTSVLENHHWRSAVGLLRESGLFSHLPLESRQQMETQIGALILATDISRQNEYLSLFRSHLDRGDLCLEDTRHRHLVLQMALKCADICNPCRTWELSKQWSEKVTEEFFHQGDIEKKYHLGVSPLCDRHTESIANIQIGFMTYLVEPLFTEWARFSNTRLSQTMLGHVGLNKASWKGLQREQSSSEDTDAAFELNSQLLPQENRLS
Chain of 3',5'-cyclic-AMP phosphodiesterase 4A (P27815 whole entry): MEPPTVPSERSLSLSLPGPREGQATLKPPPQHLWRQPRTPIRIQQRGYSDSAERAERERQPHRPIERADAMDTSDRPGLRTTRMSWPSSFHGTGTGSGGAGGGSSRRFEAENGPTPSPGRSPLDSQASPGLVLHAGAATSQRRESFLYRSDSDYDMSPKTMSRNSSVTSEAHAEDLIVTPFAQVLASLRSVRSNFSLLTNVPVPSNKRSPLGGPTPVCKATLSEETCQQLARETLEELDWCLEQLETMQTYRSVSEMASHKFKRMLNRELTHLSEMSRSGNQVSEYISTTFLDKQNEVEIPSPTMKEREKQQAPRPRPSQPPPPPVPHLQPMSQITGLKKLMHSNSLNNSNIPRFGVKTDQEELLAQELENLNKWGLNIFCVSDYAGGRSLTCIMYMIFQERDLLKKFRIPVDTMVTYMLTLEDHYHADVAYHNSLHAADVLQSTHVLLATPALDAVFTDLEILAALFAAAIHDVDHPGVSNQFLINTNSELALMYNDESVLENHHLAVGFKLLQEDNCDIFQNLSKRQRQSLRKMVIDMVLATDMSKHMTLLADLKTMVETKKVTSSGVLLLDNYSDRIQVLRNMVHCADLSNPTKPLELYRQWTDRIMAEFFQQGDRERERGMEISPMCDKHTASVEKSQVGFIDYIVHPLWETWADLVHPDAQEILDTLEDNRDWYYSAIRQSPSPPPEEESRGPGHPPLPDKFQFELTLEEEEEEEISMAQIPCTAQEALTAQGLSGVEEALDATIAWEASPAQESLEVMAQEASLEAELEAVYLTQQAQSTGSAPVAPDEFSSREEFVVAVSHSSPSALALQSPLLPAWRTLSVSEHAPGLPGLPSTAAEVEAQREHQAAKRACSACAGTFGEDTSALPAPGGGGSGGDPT

One may read the IC50 as the concentration that inhibits the measured activity by half. `CCOC(=O)c1cnc2c(cnn2CC)c1NN=C(C)C` [ETAZOLATE]: in test [1], the IC50 came out at 390 nM.
Take `CCOc1cc2c(cc1OC)C(c1ccc(C(=O)N(C(C)C)C(C)C)cc1)=N[C@@H]1CCN(C)C[C@H]21` [PUMAFENTRINE]: the results for the IC50 (in test [2]; against Phosphodiesterase 4 [3]) were 28 nM and 7 nM, respectively.
As for `CC1CN(C(=O)CO/N=C/c2ccc(OC(F)F)c(OC3CCCC3)c2)CC(C)O1` (stereo unspecified), it took 800 nM to reach half-maximal inhibition in test [4] (IC50).
On Phosphodiesterase 4 [5], `COc1ccc(C(Cc2c(Cl)cncc2Cl)OC(=O)c2ccc(OC(F)F)c(OCC3CC3)c2)cc1OC` (stereo unspecified) had an IC50 of 0.2 nM.
For `COc1cccc(Nc2c(C(N)=O)ccc3c(C)cc(S(=O)(=O)c4cccc(C(=O)Nc5ccc(C#CCCCNC[C@@H](O)c6ccc(O)c7[nH]c(=O)ccc67)cc5)c4)cc23)c1`, the 50% inhibitory concentration (IC50) in test [6] was determined as 5 nM.
Consider `O=C(NC1CC1)c1cn(-c2cccc(-c3ccc([C@@H]4C[C@H]4C(=O)O)c(F)c3)c2)c2ncccc2c1=O`, for which the 50% inhibitory concentration (IC50) against Phosphodiesterase 4 [5] came to 0.6 nM.
With `CS(=O)(=O)Nc1ccc(C(=O)O[C@@H](Cc2c(Cl)c[n+]([O-])cc2Cl)c2ccc(OC(F)F)c(OCC3CC3)c2)cc1OCC1CC1`, on Phosphodiesterase 4 [7], the IC50 was found to be 0.026 nM.
In [8], `CC(C)Nc1nccc(-c2c(C3CC3)nn3ccccc23)n1` had an IC50 of 1200 nM.
The inhibition is the percentage by which the read-out fell short of the control. On to `Cc1c(C(=O)Nc2ccc(F)cc2F)sc2ncnc(N3CCN(C)CC3)c12`, for which the inhibition in test [9] came out at 64%; in [10] it was 64%; in test [11] it was 98%; in [12], 64%.
Regarding `CC(C)CC(=O)c1ccc(OC(F)F)c(OC2CCOC2)c1` (stereo unspecified), the IC50 in test [13] worked out at 20 nM.
For `O=C(O/C(=C\c1c(Cl)cncc1Cl)c1ccc(OC(F)F)c(OCC2CC2)c1)c1ccc(OC(F)F)c(OCC2CC2)c1`, at Phosphodiesterase 4 [5], the half-inhibitory concentration (IC50) is reported as 0.9 nM.
On to `O=C(N[C@H]1CC[C@@H](C2C(=O)c3cc(F)cnc3N(C3CCSCC3)C2=O)CC1)c1cn2cc(F)ccc2n1` (stereo partly specified), for which the IC50 in test [14] is 0.126 nM.
Molecule `COc1ccc([C@H]2CNC(=O)[C@H](Cc3cccc(C)c3)C2)cc1OC1CCCC1` [HT-0712] registered an IC50 in test [1] of 150 nM.
Turning to `CCOc1cc(C(CS(C)(=O)=O)N2C(=O)c3csc(NC(C)=O)c3C2=O)ccc1OC` (stereo unspecified), the IC50 in test [15] was determined as 26 nM.
In the case of `CCOc1ccc(-c2nc(-c3cccc(C(=O)O)n3)cs2)cc1OCC` [TETOMILAST], on Phosphodiesterase 4 [5], the IC50 turned out to be 74 nM.
As for `Cn1nc(C(=O)NC2CCC(NC(=O)c3cc(F)cnc3Oc3cccc(-c4ccc(CCCN5CCNCC5)cc4)c3)CC2)cc1C(F)(F)F` (stereo unspecified), in [14], the IC50 was 0.01 nM.
Molecule `CCNC(=O)c1cc(C(=O)NCCCN(C)C)cc(-c2cc(NC(=O)Nc3c(Cl)cncc3Cl)c(=O)n(CC)n2)c1` showed an IC50 on Phosphodiesterase 4 [16] of 0.05 nM.
With `CCc1nc2c(cnn2CC)c(NC2CCCCC2)c1C1=NOC2(C1)CC(C1N=NN=N1)C2` (stereo unspecified), the IC50 in test [17] turned out to be 55 nM; in test [18], 5 nM.
Turning to `COc1ccc(C2=NN(CCCCCc3ccccc3)C(=O)CC2)cc1OC`, the IC50 in test [19] was determined as 0.9 nM.
Take `O=C(Nc1c(Cl)c[n+]([O-])cc1Cl)c1ccc(OC(F)F)c2oc3ccncc3c12`: the IC50 against Phosphodiesterase 4 [5] was found to be 3 nM.
`COc1ccc(-c2ccc3nc(N)nc(N4CCN(C(=O)Nc5ccc(Cl)cc5)CC4)c3n2)cc1OC` had an IC50 against Phosphodiesterase 4 [20] of 0.4 nM.
